Experimental data published in patent publication US20100261783A1, “CRUCIFEROUS 3H-1,2-DITHIOLE-3-THIONE (D3T) AND METHODS OF PROTECTING AGAINST CELL INJURY” (priority 2009, published 2010).

Key:
[1] = test system: primary human cardiomyocytes; assay: Induction of antioxidants and phase 2 enzymes in human cardiomyocytes; format: cell-based
SH-SY5Y cells [2] = details: D3T-pretreatment; dopamine, 6-hydroxydopamine, 4-hydroxy-2-nonenal, H2O2; cited from earlier work
[3] = test system: human neuroblastoma SH-SY5Y cells; details: D3T-pretreatment of SH-SY5Y cells; cited from earlier work
SH-SY5Y cells [4] = assay: Protection of SH-SY5Y cells against neurotoxicant-elicited cytotoxicity; format: cell-based; details: human neuroblastoma SH-SY5Y cells
human primary astrocytes = assay: Induction of cellular antioxidants and phase 2 enzymes in human primary astrocytes; format: cell-based
[5] = test system: primary human cardiomyocytes; details: cited from earlier work
[6] = test system: human neuroblastoma SH-SY5Y cells; assay: Induction of cellular antioxidants and phase 2 enzymes (GSH, NQO1, GCL) in SH-SY5Y cells; format: cell-based
human cardiomyocytes [7] = details: cited from earlier work
human cardiomyocytes [8] = assay: Protection of human cardiomyocytes from oxidative/electrophilic injury and doxorubicin toxicity; format: cell-based

Compound: S=c1ccss1 [D3T, 3H-1,2-dithiole-3-thione]
- induction of antioxidants in mitochondria ([1]; mitochondria of the human cardiomyocytes): potently induced
- induction of a series of antioxidants ([1]; primary human cardiomyocytes, total cellular): potently induced
- protection against the cytotoxicity elicited by neurotoxicants (SH-SY5Y cells [2]): significant protection
- induction of GSH, NQO1, and mitochondrial GSH [3]: induction
- protection against acrolein-induced cytotoxicity (SH-SY5Y cells [4]): dramatic protection
- induction of cellular antioxidants including glutathione (GSH) and phase 2 enzymes (human primary astrocytes): able to induce
- upregulation of antioxidants and phase 2 enzymes [5]: potently upregulated
- induction of glutathione (GSH) ([6]; SH-SY5Y cells): marked concentration- and time-dependent induction
- protein and mRNA expression of gamma-glutamylcysteine ligase (GCL) ([6]; SH-SY5Y cells): increased
- induction of cellular antioxidants and phase 2 enzymes ([6]; human neuronal cells (neuroblastoma SH-SY5Y cells)): capable of inducing
- resistance to oxidative/electrophilic stress and doxorubicin toxicity (human cardiomyocytes [7]): increased resistance
- protection of cardiomyocytes from injury elicited by doxorubicin (human cardiomyocytes [8]; doxorubicin): potently protected
- protection of cardiomyocytes from injury caused by free radicals and electrophiles (human cardiomyocytes [8]; wide range of free radicals and electrophiles): nearly complete protection
